In US11841369B2, “Method for improving quality of therapeutic cell through real-time glutathione measurement” (CELL2IN, INC., priority 2017, dated 2023):

Columns and labels:
hUC-MSCs [1] = test: Mitochondrial GSH (mGSH) distribution after RSL3, MitoFreSH-Tracer, flow cytometry and confocal imaging; assay type: cell-based, human
Method: After the cultured human umbilical cord-derived mesenchymal stem cells (hUC-MSCs) at passage 4, 7 or 15 were treated with various concentrations of RSL3 and stained with MitoFreSH, the distribution pattern of mitochondrial GSH (mGSH) in the cells was confirmed by histograms using flow cytometry and confocal imaging.
hUC-MSCs at passage 4, 7 or 15 were prepared, seeded at 70000 cells/well in a 6-well cell culture plate, and cultured at 37° C. for 24 hours. The medium used in the culture was prepared by adding 10% fetal bovine serum and 1× penicillin-streptomycin to α-MEM. […] The cells detached from the plate were transferred to an FACS tube and stored on ice, and a fluorescence level was measured using a flow cytometer.
hUC-MSCs at passage 4, 7 or 15 were prepared, seeded at 7000 cells/100 μl per well in a 96-well cell culture plate, and cultured at 37° C. for 24 hours. […] To remove MitoFreSH-Tracer from the medium before measurement, the medium was exchanged with fresh 10 mM HEPES-containing HBSS, and fluorescence images were measured using a confocal imaging system, Operetta.
A F510/F580 ratio referring to a GSH mean value in cells was calculated by measuring fluorescence values of F510 (fluorescence value when MitoFreSH-Tracer was bound with SH) and F580 (fluorescence value of MitoFreSH-Tracer, which was not bound with SH) in cells and dividing the F510 value by the F580 value. […]

hUC-MSCs [2] = test: CFU-F assay of hUC-MSCs; assay type: cell-based, human; details: ferrostatin-1 0.2, 1, 2, 4 μM or liproxstatin-1 0.1, 0.5, 1, 2 μM, 24 hours
Method: The inventors observed an effect of the material on stem cells by treating each stem cells with a material for enhancing a glutathione evaluation parameter. When hUC-MSCs were subcultured in a L-AA2G-containing medium, CFU-F, migration capacity, and an anti-inflammatory effect were observed. A CFU-F assay (n=3) was performed by treating hUC-MSCs with 125 or 250 μg/mL of AA2G for three days. As shown in FIGS. 16A and 16B, it was confirmed that, when AA2G was treated, CFU-F increased. In addition, as hUC-MSCs were treated with 125 or 250 μg/mL of AA2G for three days, PDGF-AA-induced migration capacity (n=3) was analyzed. As shown in FIGS. 17A and 17B, it was confirmed that the migration capacity was increased by AA2G treatment. In addition, the reduction in T cell proliferation, a reduction in T cell differentiation, and the promotion of Treg cell differentiation were observed by treating hUC-MSCs with 125 or 250 μg/mL of AA2G for three days. […] Meanwhile, hUC-MSCs were cultured with a glutathione precursor such as γ-glutamyl cysteine (GGC, 0.1, 0.25, and 0.5 mM). A CFU-F assay (n=3) was performed by treating hUC-MSCs with each concentration of GGC for 2 hours. […] In addition, SDF1α and PDGF-AA-induced migration capacities (n=3) were analyzed for hUC-MSCs without treatment with GGC, and SDF1α- and PDGF-AA-induced migration abilities (n=3) were analyzed by treating hUC-MSCs with the increasing concentrations of GGC. STI571 was used as a PDGFR kinase inhibitor. As shown in FIGS. 20A to 20C, it was confirmed that, according to an increase in GGC treatment concentration, SDF1α- and PDGF-AA-induced migration capacities were enhanced. A CFU-F assay (n=3) was performed by treating hUC-MSCs with 0.2, 1, 2, and 4 μM ferrostatin-1 and 0.1, 0.5, 1, and 2 μM liproxstatin-1 for 24 hours.

T cells = test: Anti-inflammatory effect of treated hUC-MSCs: T cell proliferation, T cell differentiation, Treg cell differentiation; assay type: cell-based
Method: The inventors observed an effect of the material on stem cells by treating each stem cells with a material for enhancing a glutathione evaluation parameter. When hUC-MSCs were subcultured in a L-AA2G-containing medium, CFU-F, migration capacity, and an anti-inflammatory effect were observed. A CFU-F assay (n=3) was performed by treating hUC-MSCs with 125 or 250 μg/mL of AA2G for three days. As shown in FIGS. 16A and 16B, it was confirmed that, when AA2G was treated, CFU-F increased. In addition, as hUC-MSCs were treated with 125 or 250 μg/mL of AA2G for three days, PDGF-AA-induced migration capacity (n=3) was analyzed. As shown in FIGS. 17A and 17B, it was confirmed that the migration capacity was increased by AA2G treatment. In addition, the reduction in T cell proliferation, a reduction in T cell differentiation, and the promotion of Treg cell differentiation were observed by treating hUC-MSCs with 125 or 250 μg/mL of AA2G for three days.
In addition, hUC-MSCs were cultured with ferrostatin-1 (0.2, 1, 2 and 4 μM) and liproxstatin-1 (0.1, 0.5, 1 and 2 μM), which control a glutathione level in cells by inhibiting lipid oxidation. […] Meanwhile, the hUC-MSCs were treated with 1 μM ferrostatin-1 for 24 hours, 0.2 mM GGC for 2 hours, and 2 mM GSH-EE for 2 hours. As a result, the reduction in T cell proliferation ability and the reduction in T cell differentiation capacity were observed, and promotion of Treg cell differentiation was observed.

human dermal fibroblasts = test: mGSH distribution after RSL3 in human dermal fibroblasts, confocal imaging; assay type: cell-based; details: as the subculture continued
Method: As described in the experiment for MSCs, human dermal fibroblasts subcultured several times were treated with RSL3 and the cells were stained with MitoFreSH-Tracer, and a ratio between cells maintaining mGSH and cells not maintaining mGSH was represented as a percentage through confocal imaging.

hUC-MSCs [3] = test: CD146 surface expression in mGSH^High and mGSH^Low cells after RSL3, flow cytometry; assay type: cell-based, human; details: P4 hUC-MSC, compared with mGSH level-maintaining group
Description: To confirm whether the stem cell function of cells in which an mGSH level decreased is deteriorated under lipid oxidative stress caused by RSL3 treatment, an expression level of CD146, which is a cell surface protein known to be highly expressed in stem cells of high quality according to conventional literature, was confirmed through flow cytometry.
The cells were stained by the same method as a method of measuring a mitochondria GSH level through the flow cytometry as described above, and detached from the plate using trypsin. The detached cells were treated with an antibody for flow cytometry with respect to CD146 to which a fluorescent material BUV395 was bound at 4° C. for 30 minutes, and washed with PBS. Using a flow cytometer, F510 and F580 fluorescence values for measuring a GSH level and a BUV395 fluorescence value for measuring CD146 expression were measured. Afterward, based on the point at which the histogram showing the F510/F580 distribution was divided into two peaks, the cells were divided into GSH^High cells (right peak) and GSH^Low cells (left peak) using FlowJo software, and a CD146-positive ratio of the corresponding cells is represented as a percentage (%).

[4] = hUC-MSCs treated with 1 μM ferrostatin-1 24 h, 0.2 mM GGC 2 h or 2 mM GSH-EE 2 h

SMILES	effect of RSL3 on mGSH upon Ferrostatin-1 treatment (hUC-MSCs [1]; hUC-MSCs treated with RSL3 (FIG. 33))	CFU-F (hUC-MSCs [2])	anti-inflammatory effect of the hUC-MSCs (T cells; ferrostatin-1 or liproxstatin-1 treatment (FIGS. 27, 28A to 28C))	T cell differentiation capacity (T cells; [4])	T cell proliferation ability (T cells; [4])	Treg cell differentiation (T cells; [4])	mGSH levels (hUC-MSCs [1]; hUC-MSCs passage 4, 7 or 15, RSL3 0.1/0.5/1 μM, dependent on RSL3 concentration and passage number)	proportion of cells in which mGSH decreases by treatment with RSL3 (human dermal fibroblasts)	lowering of CD146-positive ratio in group in which mGSH level is lowered by RSL3 (hUC-MSCs [3])
CCOC(=O)c1ccc(NC2CCCCC2)c(N)c1 [ferrostatin-1]	disappeared	improved	did not alter	reduction	reduction	promotion			
COC(=O)c1ccc([C@@H]2c3[nH]c4ccccc4c3C[C@@H](C(=O)OC)N2C(=O)CCl)cc1 [RSL3, 1S,3R-RAS-selective lethal 3]							reduced	increased	approximately 25%
